The NIST ThermoML archive (doi:10.1016/j.jct.2006.09.012)
Values joined by “and” are separate entries in the source; they are usually repeats but may differ in a detail not shown here. Equal entries are not always repeated.

Details: Gas, Buoyancy - hydrostatic balance with magnetic suspension - two sinkers

[He] [helium]
Details	mass density
223.15 K, 1881.4 kPa	4.0102 kg/m3 and 4.0101 kg/m3
223.15 K, 1881.5 kPa	4.0102 kg/m3
223.15 K, 3970 kPa	8.3499 kg/m3
223.15 K, 3970.1 kPa	8.3501 kg/m3 and 8.3499 kg/m3 and 8.35 kg/m3
223.15 K, 3970.2 kPa	8.3499 kg/m3
223.15 K, 8133.1 kPa	16.67 kg/m3 and 16.6699 kg/m3 and 16.6701 kg/m3
223.15 K, 8133.2 kPa	16.6699 kg/m3 and 16.6701 kg/m3
223.15 K, 11880 kPa	23.8087 kg/m3 [middle of 5 runs]
223.15 K, 15827 kPa	30.9985 kg/m3
223.15 K, 15828 kPa	30.9993 kg/m3 [middle of 4 runs]
223.15 K, 19642 kPa	37.6507 kg/m3 [middle of 4 runs]
223.15 K, 26024 kPa	48.1863 kg/m3 and 48.1868 kg/m3
223.15 K, 26025 kPa	48.1881 kg/m3 and 48.1886 kg/m3 and 48.1887 kg/m3
223.15 K, 32014 kPa	57.4666 kg/m3
223.15 K, 32015 kPa	57.4668 kg/m3 and 57.4679 kg/m3
223.15 K, 32016 kPa	57.4684 kg/m3
223.15 K, 32017 kPa	57.4698 kg/m3
223.15 K, 38281 kPa	66.6119 kg/m3
223.15 K, 38282 kPa	66.6131 kg/m3 and 66.6126 kg/m3
223.15 K, 38283 kPa	66.614 kg/m3
223.15 K, 38284 kPa	66.616 kg/m3
253.15 K, 1929.2 kPa	3.629 kg/m3 and 3.6292 kg/m3
253.15 K, 1929.3 kPa	3.629 kg/m3 and 3.6294 kg/m3 and 3.6292 kg/m3
253.15 K, 3784.6 kPa	7.046 kg/m3 and 7.0462 kg/m3 and 7.0461 kg/m3
253.15 K, 7472.2 kPa	13.634 kg/m3
253.15 K, 7472.3 kPa	13.634 kg/m3
253.15 K, 11895 kPa	21.202 kg/m3 and 21.2018 kg/m3
253.15 K, 11896 kPa	21.2023 kg/m3 and 21.2022 kg/m3 and 21.2019 kg/m3
253.15 K, 15957 kPa	27.8548 kg/m3
253.15 K, 15958 kPa	27.8555 kg/m3 [middle of 4 runs]
253.15 K, 19865 kPa	34.0064 kg/m3 and 34.007 kg/m3
253.15 K, 19866 kPa	34.0081 kg/m3 and 34.0112 kg/m3
253.15 K, 25976 kPa	43.1785 kg/m3
253.15 K, 25977 kPa	43.179 kg/m3 and 43.1796 kg/m3
253.15 K, 25978 kPa	43.181 kg/m3 and 43.1801 kg/m3
253.15 K, 31938 kPa	51.6436 kg/m3 and 51.6443 kg/m3
253.15 K, 31940 kPa	51.647 kg/m3 and 51.6462 kg/m3 and 51.6454 kg/m3
253.15 K, 37813 kPa	59.5651 kg/m3
253.15 K, 37814 kPa	59.5664 kg/m3
253.15 K, 37815 kPa	59.5673 kg/m3
253.15 K, 37816 kPa	59.5686 kg/m3
253.15 K, 37817 kPa	59.5703 kg/m3
273.16 K, 935.8 kPa	1.6415 kg/m3
273.16 K, 935.9 kPa	1.6416 kg/m3 and 1.6415 kg/m3
273.16 K, 1881.8 kPa	3.2839 kg/m3
273.16 K, 1927.3 kPa	3.363 kg/m3 and 3.3629 kg/m3
273.16 K, 1927.4 kPa	3.3629 kg/m3 and 3.363 kg/m3
273.16 K, 1956.4 kPa	3.4135 kg/m3
273.16 K, 1956.5 kPa	3.4135 kg/m3 and 3.4134 kg/m3
273.16 K, 3626.6 kPa	6.273 kg/m3 and 6.2731 kg/m3
273.16 K, 3626.7 kPa	6.2732 kg/m3
273.16 K, 3626.8 kPa	6.2735 kg/m3
273.16 K, 3926.1 kPa	6.7802 kg/m3
273.16 K, 3926.2 kPa	6.7804 kg/m3 and 6.7802 kg/m3 and 6.7803 kg/m3
273.16 K, 3952.8 kPa	6.8257 kg/m3
273.16 K, 3952.9 kPa	6.8257 kg/m3
273.16 K, 3975.1 kPa	6.8634 kg/m3
273.16 K, 3975.2 kPa	6.8633 kg/m3 and 6.8635 kg/m3
273.16 K, 7764.9 kPa	13.1534 kg/m3
273.16 K, 7765.3 kPa	13.1538 kg/m3
273.16 K, 7765.7 kPa	13.1545 kg/m3
273.16 K, 7766.1 kPa	13.1555 kg/m3
273.16 K, 7766.6 kPa	13.1563 kg/m3
273.16 K, 7916 kPa	13.399 kg/m3
273.16 K, 7916.1 kPa	13.3992 kg/m3 and 13.399 kg/m3 and 13.3991 kg/m3
273.16 K, 7973.3 kPa	13.4919 kg/m3
273.16 K, 7973.4 kPa	13.4923 kg/m3 and 13.4922 kg/m3 and 13.4921 kg/m3
273.16 K, 8006.1 kPa	13.5452 kg/m3
273.16 K, 8006.2 kPa	13.5452 kg/m3
273.16 K, 11783 kPa	19.5712 kg/m3 [middle of 5 runs]
273.16 K, 11830 kPa	19.6435 kg/m3 [middle of 5 runs]
273.16 K, 11855 kPa	19.6832 kg/m3 [middle of 5 runs]
273.16 K, 12056 kPa	19.9988 kg/m3 [middle of 5 runs]
273.16 K, 15586 kPa	25.4233 kg/m3 and 25.4234 kg/m3
273.16 K, 15587 kPa	25.4235 kg/m3 and 25.4232 kg/m3
273.16 K, 15980 kPa	26.017 kg/m3 [middle of 5 runs]
273.16 K, 16077 kPa	26.1628 kg/m3 and 26.1631 kg/m3
273.16 K, 16078 kPa	26.164 kg/m3 and 26.1636 kg/m3 and 26.1633 kg/m3
273.16 K, 16090 kPa	26.1822 kg/m3 [middle of 5 runs]
273.16 K, 19645 kPa	31.445 kg/m3 [middle of 4 runs]
273.16 K, 19708 kPa	31.5381 kg/m3 and 31.5379 kg/m3
273.16 K, 19709 kPa	31.5382 kg/m3 and 31.5385 kg/m3 and 31.5386 kg/m3
273.16 K, 19869 kPa	31.7712 kg/m3 and 31.7709 kg/m3
273.16 K, 19870 kPa	31.7727 kg/m3 and 31.7718 kg/m3 and 31.7722 kg/m3
273.16 K, 20242 kPa	32.3124 kg/m3 [middle of 4 runs]
273.16 K, 20243 kPa	32.314 kg/m3
273.16 K, 25434 kPa	39.6666 kg/m3 and 39.6662 kg/m3 and 39.6672 kg/m3
273.16 K, 25435 kPa	39.6682 kg/m3 and 39.6678 kg/m3
273.16 K, 25464 kPa	39.7083 kg/m3
273.16 K, 25465 kPa	39.7092 kg/m3
273.16 K, 25466 kPa	39.7107 kg/m3 and 39.7113 kg/m3 and 39.7099 kg/m3
273.16 K, 25915 kPa	40.3302 kg/m3 and 40.3307 kg/m3 and 40.3313 kg/m3
273.16 K, 25916 kPa	40.3324 kg/m3 and 40.3317 kg/m3
273.16 K, 25964 kPa	40.3998 kg/m3
273.16 K, 25965 kPa	40.4011 kg/m3 and 40.4013 kg/m3
273.16 K, 25966 kPa	40.402 kg/m3
273.16 K, 31576 kPa	47.9567 kg/m3
